According to the supplement of paper PMC9103864:

Columns and labels:
[1] = test system: BMSC (primary human bone marrow mesenchymal stromal cells); experiment: absolute EC50 for viability; higher = less sensitive
[2] = test system: BMSC (primary human bone marrow mesenchymal stromal cells); experiment: drug sensitivity score (DSS); higher = more sensitive

Compound: CCc1cnn2c(NCc3ccc[n+]([O-])c3)cc(N3CCCC[C@H]3CCO)nc12 [Dinaciclib]
- absolute EC50 for viability [1]: > 1000 nM
- drug sensitivity score [2]: 8.1

Compound: CCN(CC)C(=S)SSC(=S)N(CC)CC [Disulfiram]
- absolute EC50 for viability [1]: > 50000 nM
- drug sensitivity score [2]: 0

Compound: CC(=O)O[C@@]12CO[C@@H]1C[C@H](O)[C@@]1(C)C(=O)[C@H](O)C3=C(C)[C@@H](OC(=O)[C@H](O)[C@@H](NC(=O)OC(C)(C)C)c4ccccc4)C[C@@](O)([C@@H](OC(=O)c4ccccc4)[C@H]21)C3(C)C [Docetaxel]
- absolute EC50 for viability [1]: > 1000 nM
- drug sensitivity score [2]: 5

Compound: Cc1ccc(-n2nc(C(C)(C)C)cc2NC(=O)Nc2ccc(OCCN3CCOCC3)c3ccccc23)cc1 [Doramapimod]
- absolute EC50 for viability [1]: > 10000 nM
- drug sensitivity score [2]: 1

Compound: CN1CCN(c2ccc3nc(-c4c(N)c5c(F)cccc5[nH]c4=O)[nH]c3c2)CC1 [Dovitinib]
- absolute EC50 for viability [1]: > 10000 nM
- drug sensitivity score [2]: 0.9

Compound: COc1cccc2c1C(=O)c1c(O)c3c(c(O)c1C2=O)C[C@@](O)(C(=O)CO)C[C@@H]3O[C@H]1C[C@H](N)[C@H](O)[C@H](C)O1 [Doxorubicin]
- absolute EC50 for viability [1]: 219 nM
- drug sensitivity score [2]: 6.8

Compound: C[C@H](Nc1ncnc2nc[nH]c12)c1cc2cccc(Cl)c2c(=O)n1-c1ccccc1 [Duvelisib]
- absolute EC50 for viability [1]: > 500 nM
- drug sensitivity score [2]: 0.6

Compound: Cc1ccc(NS(=O)(=O)c2cccc(C#N)c2)c2[nH]cc(C#N)c12 [E7820]
- absolute EC50 for viability [1]: > 50000 nM
- drug sensitivity score [2]: 0

Compound: Cc1cc(Nc2cc(N3CCN(C)CC3)nc(/C=C/c3ccccc3)n2)n[nH]1 [ENMD-2076]
- absolute EC50 for viability [1]: 897 nM
- drug sensitivity score [2]: 11.5

Compound: Cc1cc(C)c(CNC(=O)c2cc(-c3ccc(CN4CCOCC4)cc3)cc3c2cnn3C2CCCC2)c(=O)[nH]1 [EPZ-5687]
- absolute EC50 for viability [1]: 9930 nM
- drug sensitivity score [2]: 0

Compound: NC(=O)/C(=C/n1cnc(-c2cc(C(F)(F)F)cc(C(F)(F)F)c2)n1)c1cncnc1 [Eltanexor]
- absolute EC50 for viability [1]: > 10000 nM
- drug sensitivity score [2]: 9.6

Compound: CC(C)(O)CNc1nc(Nc2ccnc(C(F)(F)F)c2)nc(-c2cccc(C(F)(F)F)n2)n1 [Enasidenib]
- absolute EC50 for viability [1]: > 10000 nM
- drug sensitivity score [2]: 0

Compound: COC(=O)N[C@@H](C)CNc1nccc(-c2cn(C(C)C)nc2-c2cc(Cl)cc(NS(C)(=O)=O)c2F)n1 [Encorafenib]
- absolute EC50 for viability [1]: > 1000 nM
- drug sensitivity score [2]: 0

Compound: Nc1ccccc1NC(=O)c1ccc(CNC(=O)OCc2cccnc2)cc1 [Entinostat]
- absolute EC50 for viability [1]: > 10000 nM
- drug sensitivity score [2]: 3.5

Compound: c1cn2cc(-c3ccc4cn[nH]c4c3)nc(Nc3ccc(N4CCOCC4)cc3)c2n1 [Entospletinib]
- absolute EC50 for viability [1]: > 5000 nM
- drug sensitivity score [2]: 0

Compound: CN1CCN(c2ccc(C(=O)Nc3n[nH]c4ccc(Cc5cc(F)cc(F)c5)cc34)c(NC3CCOCC3)c2)CC1 [Entrectinib]
- absolute EC50 for viability [1]: > 1000 nM
- drug sensitivity score [2]: 0.8

Compound: CNC(=O)c1ccc(N2C(=S)N(c3ccc(C#N)c(C(F)(F)F)c3)C(=O)C2(C)C)cc1F [Enzalutamide]
- absolute EC50 for viability [1]: > 10000 nM
- drug sensitivity score [2]: 0

Compound: Cn1cc(C2=C(c3cn(C4CCN(Cc5ccccn5)CC4)c4ccccc34)C(=O)NC2=O)c2ccccc21 [Enzastaurin]
- absolute EC50 for viability [1]: > 10000 nM
- drug sensitivity score [2]: 0

Compound: NS(=O)(=O)NCCNc1nonc1/C(=N/O)Nc1ccc(F)c(Br)c1 [Epacadostat]
- absolute EC50 for viability [1]: > 10000 nM
- drug sensitivity score [2]: 0

Compound: COc1cccc2c1C(=O)c1c(O)c3c(c(O)c1C2=O)C[C@@](O)(C(=O)CO)C[C@@H]3O[C@H]1C[C@H](N)[C@@H](O)[C@H](C)O1 [Epirubicin]
- absolute EC50 for viability [1]: 249 nM
- drug sensitivity score [2]: 6.4

Compound: CCOc1ccccc1-n1c(C(C)N2CCN(C(=O)COc3ccc(Cl)cc3)CC2)nc2ccccc2c1=O (configuration not stated) [Erastin]
- absolute EC50 for viability [1]: > 10000 nM
- drug sensitivity score [2]: 2.1

Compound: COc1cc(OC)cc(N(CCNC(C)C)c2ccc3ncc(-c4cnn(C)c4)nc3c2)c1 [Erdafitinib]
- absolute EC50 for viability [1]: > 1000 nM
- drug sensitivity score [2]: 2.2

Compound: C=C1C[C@@H]2CC[C@@]34C[C@H]5O[C@H]6[C@@H](O3)[C@H]3O[C@H](CC[C@@H]3O[C@H]6[C@H]5O4)CC(=O)C[C@@H]3[C@@H](OC)[C@@H](C[C@H](O)CN)O[C@H]3C[C@H]3O[C@@H](CC[C@@H]1O2)C[C@@H](C)C3=C [Eribulin]
- absolute EC50 for viability [1]: > 1000 nM
- drug sensitivity score [2]: 12

Compound: C#Cc1cccc(Nc2ncnc3cc(OCCOC)c(OCCOC)cc23)c1 [Erlotinib]
- absolute EC50 for viability [1]: > 10000 nM
- drug sensitivity score [2]: 1.5

Compound: COc1cc([C@@H]2c3cc4c(cc3[C@@H](O[C@@H]3O[C@@H]5CO[C@@H](C)O[C@H]5[C@H](O)[C@H]3O)[C@H]3COC(=O)[C@H]23)OCO4)cc(OC)c1O [Etoposide]
- absolute EC50 for viability [1]: > 10000 nM
- drug sensitivity score [2]: 0

Compound: CO[C@H]1C[C@@H]2CC[C@@H](C)[C@@](O)(O2)C(=O)C(=O)N2CCCC[C@H]2C(=O)O[C@H]([C@H](C)C[C@@H]2CC[C@@H](OCCO)[C@H](OC)C2)CC(=O)[C@H](C)/C=C(\C)[C@@H](O)[C@@H](OC)C(=O)[C@H](C)C[C@H](C)/C=C/C=C/C=C/1C [Everolimus]
- absolute EC50 for viability [1]: > 100 nM
- drug sensitivity score [2]: 5.2

Compound: C=C1C[C@@H]2[C@H](CC[C@]3(C)C(=O)CC[C@@H]23)[C@@]2(C)C=CC(=O)C=C12 [Exemestane]
- absolute EC50 for viability [1]: > 10000 nM
- drug sensitivity score [2]: 0

Compound: Cc1cnc(Nc2ccc(OCCN3CCCC3)cc2)nc1Nc1cccc(S(=O)(=O)NC(C)(C)C)c1 [Fedratinib]
- absolute EC50 for viability [1]: 1470 nM
- drug sensitivity score [2]: 9.3

Compound: CON(C)C(=O)N1N=C(c2cc(F)ccc2F)S[C@@]1(CCCN)c1ccccc1 [Filanesib]
- absolute EC50 for viability [1]: > 1000 nM
- drug sensitivity score [2]: 0

Compound: O=C(Nc1nc2cccc(-c3ccc(CN4CCS(=O)(=O)CC4)cc3)n2n1)C1CC1 [Filgotinib]
- absolute EC50 for viability [1]: > 10000 nM
- drug sensitivity score [2]: 2.3

Compound: CC(C)(C)NC(=O)[C@H]1CC[C@H]2[C@@H]3CC[C@H]4NC(=O)C=C[C@]4(C)[C@H]3CC[C@]12C [Finasteride]
- absolute EC50 for viability [1]: > 10000 nM
- drug sensitivity score [2]: 0

Compound: CCCCCCCCc1ccc(CCC(N)(CO)CO)cc1 [Fingolimod]
- absolute EC50 for viability [1]: 3020 nM
- drug sensitivity score [2]: 5.8

Compound: O=c1[nH]c(=O)n([C@H]2C[C@H](O)[C@@H](CO)O2)cc1F [Floxuridine]
- absolute EC50 for viability [1]: > 10000 nM
- drug sensitivity score [2]: 0

Compound: O=c1[nH]cc(F)c(=O)[nH]1 [Fluorouracil]
- absolute EC50 for viability [1]: > 10000 nM
- drug sensitivity score [2]: 0.9

Compound: CC(C)C(=O)Nc1ccc([N+](=O)[O-])c(C(F)(F)F)c1 [Flutamide]
- absolute EC50 for viability [1]: > 10000 nM
- drug sensitivity score [2]: 0

Compound: COc1cc2c(Oc3ccc(NC(=O)C4(C(=O)Nc5ccc(F)cc5)CC4)cc3F)ccnc2cc1OCCCN1CCOCC1 [Foretinib]
- absolute EC50 for viability [1]: 460 nM
- drug sensitivity score [2]: 6

Compound: COc1cc(Nc2ncc(F)c(Nc3ccc4c(n3)N(COP(=O)(O)O)C(=O)C(C)(C)O4)n2)cc(OC)c1OC [Fostamatinib]
- absolute EC50 for viability [1]: > 2500 nM
- drug sensitivity score [2]: 5.2

Compound: C[C@]12CC[C@@H]3c4ccc(O)cc4C[C@@H](CCCCCCCCC[S+]([O-])CCCC(F)(F)C(F)(F)F)[C@H]3[C@@H]1CC[C@@H]2O (some centres not stated) [Fulvestrant]
- absolute EC50 for viability [1]: > 1000 nM
- drug sensitivity score [2]: 0

Compound: CC1(C)OCCn2c1nc1c(N3CCOCC3)nc(-c3cnc(N)nc3)nc12 [GDC-0084]
- absolute EC50 for viability [1]: 644 nM
- drug sensitivity score [2]: 13.2

Compound: O=C(NOCCO)c1ccc2cncn2c1Nc1ccc(I)cc1F [GDC-0623]
- absolute EC50 for viability [1]: > 2500 nM
- drug sensitivity score [2]: 0

Compound: C[C@H]1CN(C2COC2)CCN1c1ccc(Nc2cc(-c3ccnc(N4CCn5c(cc6c5CC(C)(C)C6)C4=O)c3CO)cn(C)c2=O)nc1 [GDC-0853]
- absolute EC50 for viability [1]: > 1000 nM
- drug sensitivity score [2]: 0

Compound: CNc1nc(Nc2cn(C(C)(C)C#N)nc2C)ncc1C(F)(F)F [GNE-0877]
- absolute EC50 for viability [1]: > 1000 nM
- drug sensitivity score [2]: 0

Compound: CCNc1nc(Nc2cc(F)c(C(=O)N3CCOCC3)cc2OC)ncc1C(F)(F)F [GNE-7915]
- absolute EC50 for viability [1]: > 1000 nM
- drug sensitivity score [2]: 0

Compound: CCCc1cc(C)[nH]c(=O)c1CNC(=O)c1cc(-c2ccnc(N3CCN(C)CC3)c2)cc2c1cnn2C(C)C [GSK343]
- absolute EC50 for viability [1]: > 1000 nM
- drug sensitivity score [2]: 0

Compound: CCCOc1ccn2c(C(C)=O)cc(-c3ccccc3S(C)(=O)=O)c2c1 [GSK2801]
- absolute EC50 for viability [1]: > 10000 nM
- drug sensitivity score [2]: 0

Compound: CCOC(=O)CCNc1cc(N2CCc3ccccc3CC2)nc(-c2ccccn2)n1 [GSK-J4]
- absolute EC50 for viability [1]: 73000 nM
- drug sensitivity score [2]: 2.8

Compound: C[C@@H]1C=C2C(=O)O[C@@H]3CC[C@H](C1)[C@]23O [Galiellalactone]
- absolute EC50 for viability [1]: > 25000 nM
- drug sensitivity score [2]: 1.3

Compound: Cc1cccc(-c2nn3c(c2-c2ccnc4ccc(C(N)=O)cc24)CCC3)n1 [Galunisertib]
- absolute EC50 for viability [1]: > 1000 nM
- drug sensitivity score [2]: 0

Compound: Cc1cc(Nc2cc(CN3CCOCC3)c3nc(C)c(Cc4ccc(Cl)cc4F)n3n2)n[nH]1 [Gandotinib]
- absolute EC50 for viability [1]: 2490 nM
- drug sensitivity score [2]: 6.3

Compound: CC(C)c1cc(-c2n[nH]c(=O)n2-c2ccc3c(ccn3C)c2)c(O)cc1O [Ganetespib]
- absolute EC50 for viability [1]: 86.2 nM
- drug sensitivity score [2]: 10.3

Compound: CN(C)C1CCN(C(=O)c2ccc(NC(=O)Nc3ccc(-c4nc(N5CCOCC5)nc(N5CCOCC5)n4)cc3)cc2)CC1 [Gedatolisib]
- absolute EC50 for viability [1]: 43.7 nM
- drug sensitivity score [2]: 14.3

Compound: COc1cc2ncnc(Nc3ccc(F)c(Cl)c3)c2cc1OCCCN1CCOCC1 [Gefitinib]
- absolute EC50 for viability [1]: > 10000 nM
- drug sensitivity score [2]: 3.4

Compound: Nc1ccn([C@@H]2O[C@H](CO)[C@@H](O)C2(F)F)c(=O)n1 [Gemcitabine]
- absolute EC50 for viability [1]: > 1000 nM
- drug sensitivity score [2]: 4.5

Compound: CCc1nc(C(N)=O)c(Nc2ccc(N3CCC(N4CCN(C)CC4)CC3)c(OC)c2)nc1NC1CCOCC1 [Gilteritinib]
- absolute EC50 for viability [1]: > 1000 nM
- drug sensitivity score [2]: 0.8

Compound: CCN(CC)Cc1ccc2cc(COC(=O)Nc3ccc(C(=O)NO)cc3)ccc2c1 [Givinostat]
- absolute EC50 for viability [1]: > 1000 nM
- drug sensitivity score [2]: 3.6

Compound: CN1CC[C@@H](NC(=O)Nc2ccc(C#N)cc2)C[C@@H]1c1nc2ccccc2[nH]1 [Glasdegib]
- absolute EC50 for viability [1]: > 1000 nM
- drug sensitivity score [2]: 0
